{"source": "patent US20260256792A1", "about": "“TREATMENT OF CHRONIC SPONTANEOUS URTICARIA BY ADMINISTERING (R)-2-[3-[4-AMINO-3-(2-FLUORO-4-PHENOXY-PHENYL)PYRAZOLO[3,4-D]PYRIMIDIN-1-YL]PIPERIDINE-1-CARBONYL]-4-METHYL-4-[4-(OXETAN-3-YL)PIPERAZIN-1-YL]PENT-2-ENENITRILE” (priority 2023, published 2026)", "test_system": "angioedema in CSU patients", "test": "Phase 2 CSU study: angioedema activity score over 7 days (AAS7)", "format": "in vivo, human", "details": "400 mg QPM; for AAS7 = 0, Non-responder n (%) / AAS7 = 0, OR (95% CI) for rilzabrutinib vs. placebo / AAS7 = 0, RRD (%) for rilzabrutinib vs. placebo (95% CI) / AAS7 Post-baseline Mean (SD) / Participants with AAS7 = 0, Responder n (%) / AAS7 % Change difference for rilzabrutinib vs. placebo LS Mean (95% CI) / AAS7 % Change from baseline LS Mean (SE) / AAS7 Change difference for rilzabrutinib vs. placebo LS Mean (95% CI) / AAS7 Change from baseline LS Mean (SE): angioedema at baseline; for Non-responder n (%), AAS7 = 0 / OR (95% CI) for rilzabrutinib vs. placebo, AAS7 = 0 / RRD (%) for rilzabrutinib vs. placebo (95% CI), AAS7 = 0 / Responder n (%), AAS7 = 0: outlier removed", "excerpt": "The study comprises a 12 week, randomized, double-blind, placebo-controlled, multi-center, dose-ranging efficacy and safety phase, followed by a 40 week open label extension (OLE) phase (see FIG. 1). The study consists of three phases and an optional OLE phase. […] The weekly angioedema activity score (AAS7) was proposed as a tertiary endpoint. […] Patients were to complete the AAS using the e-diary. The e-diary was to be used once daily on the same time of each day recording of participant's answers to the angioedema activity score over 7 days (AAS7) questionnaire."}
{"molecule": "CC(C)(C=C(C#N)C(=O)N1CCC[C@@H](n2nc(-c3ccc(Oc4ccccc4)cc3F)c3c(N)ncnc32)C1)N1CCN(C2COC2)CC1", "note": "[rilzabrutinib, (R)-2-[3-[4-amino-3-(2-fluoro-4-phenoxy-phenyl)pyrazolo[3,4-d]pyrimidin-1-yl]piperidine-1-carbonyl]-4-methyl-4-[4-(oxetan-3-yl)piperazin-1-yl]pent-2-enenitrile]", "values": [{"measurement": "AAS7 = 0, Non-responder n (%)", "setting": "Week 4, omalizumab-naïve", "result": "21 (77.8) n (%)"}, {"measurement": "AAS7 = 0, OR (95% CI) for rilzabrutinib vs. placebo", "setting": "Week 4, omalizumab-naïve", "result": 0.869}, {"measurement": "AAS7 = 0, RRD (%) for rilzabrutinib vs. placebo (95% CI)", "setting": "Week 4, omalizumab-naïve", "result": "−2.4", "unit": "%"}, {"measurement": "AAS7 Post-baseline Mean (SD)", "setting": "Week 4, omalizumab-naïve", "result": "29.55 (20.68)"}, {"measurement": "Participants with AAS7 = 0, Responder n (%)", "setting": "Week 4, omalizumab-naïve", "result": "6 (22.2) n (%)"}, {"measurement": "AAS7 % Change difference for rilzabrutinib vs. placebo LS Mean (95% CI)", "setting": "Week 5, ITT", "result": "−0.88 (−26.37, 24.61) %"}, {"measurement": "AAS7 % Change from baseline LS Mean (SE)", "setting": "Week 5, ITT", "result": "−54.71 (9.56) %"}, {"measurement": "AAS7 Change difference for rilzabrutinib vs. placebo LS Mean (95% CI)", "setting": "Week 5, ITT", "result": "1.56 (−9.31, 12.42)"}, {"measurement": "AAS7 Change from baseline LS Mean (SE)", "setting": "Week 5, ITT", "result": "−28.04 (4.08)"}, {"measurement": "AAS7 Post-baseline Mean (SD)", "setting": "Week 5, ITT", "result": "25.01 (22.48)"}, {"measurement": "Non-responder n (%), AAS7 = 0", "setting": "Week 5, omalizumab-naïve", "result": "21 (56.8) n (%)"}, {"measurement": "OR (95% CI) for rilzabrutinib vs. placebo, AAS7 = 0", "setting": "Week 5, omalizumab-naïve", "result": 0.872}, {"measurement": "RRD (%) for rilzabrutinib vs. placebo (95% CI), AAS7 = 0", "setting": "Week 5, omalizumab-naïve", "result": "−3.4", "unit": "%"}, {"measurement": "Responder n (%), AAS7 = 0", "setting": "Week 5, omalizumab-naïve", "result": "16 (43.2) n (%)"}, {"measurement": "AAS7 % Change difference for rilzabrutinib vs. placebo LS Mean (95% CI)", "setting": "Week 5, omalizumab-naïve", "result": "−1.04 (−28.01, 25.93) %"}, {"measurement": "AAS7 % Change from baseline LS Mean (SE)", "setting": "Week 5, omalizumab-naïve", "result": "−55.66 (9.83) %"}, {"measurement": "AAS7 = 0, Non-responder n (%)", "setting": "Week 5, omalizumab-naïve", "result": "19 (70.4) n (%)"}, {"measurement": "AAS7 = 0, OR (95% CI) for rilzabrutinib vs. placebo", "setting": "Week 5, omalizumab-naïve", "result": 1.079}, {"measurement": "AAS7 = 0, RRD (%) for rilzabrutinib vs. placebo (95% CI)", "setting": "Week 5, omalizumab-naïve", "result": 1.6, "unit": "%"}, {"measurement": "AAS7 Post-baseline Mean (SD)", "setting": "Week 5, omalizumab-naïve", "result": "24.55 (22.80)"}, {"measurement": "Participants with AAS7 = 0, Responder n (%)", "setting": "Week 5, omalizumab-naïve", "result": "8 (29.6) n (%)"}, {"measurement": "AAS7 % Change difference for rilzabrutinib vs. placebo LS Mean (95% CI)", "setting": "Week 6, ITT", "result": "1.19 (−25.36, 27.75) %"}, {"measurement": "AAS7 % Change from baseline LS Mean (SE)", "setting": "Week 6, ITT", "result": "−46.12 (9.92) %"}, {"measurement": "AAS7 Change from baseline LS Mean (SE)", "setting": "Week 6, ITT", "result": "−25.61 (4.32)"}, {"measurement": "AAS7 Post-baseline Mean (SD)", "setting": "Week 6, ITT", "result": "27.97 (22.56)"}, {"measurement": "Non-responder n (%), AAS7 = 0", "setting": "Week 6, omalizumab-naïve", "result": "24 (64.9) n (%)"}, {"measurement": "OR (95% CI) for rilzabrutinib vs. placebo, AAS7 = 0", "setting": "Week 6, omalizumab-naïve", "result": 0.606}, {"measurement": "RRD (%) for rilzabrutinib vs. placebo (95% CI), AAS7 = 0", "setting": "Week 6, omalizumab-naïve", "result": "−11.4", "unit": "%"}, {"measurement": "Responder n (%), AAS7 = 0", "setting": "Week 6, omalizumab-naïve", "result": "13 (35.1) n (%)"}, {"measurement": "AAS7 % Change difference for rilzabrutinib vs. placebo LS Mean (95% CI)", "setting": "Week 6, omalizumab-naïve", "result": "2.62 (−26.14, 31.38) %"}, {"measurement": "AAS7 = 0, Non-responder n (%)", "setting": "Week 6, omalizumab-naïve", "result": "23 (85.2) n (%)"}, {"measurement": "AAS7 = 0, OR (95% CI) for rilzabrutinib vs. placebo", "setting": "Week 6, omalizumab-naïve", "result": 0.437}, {"measurement": "AAS7 = 0, RRD (%) for rilzabrutinib vs. placebo (95% CI)", "setting": "Week 6, omalizumab-naïve", "result": "−13.0", "unit": "%"}, {"measurement": "AAS7 Post-baseline Mean (SD)", "setting": "Week 6, omalizumab-naïve", "result": "28.26 (23.00)"}, {"measurement": "Participants with AAS7 = 0, Responder n (%)", "setting": "Week 6, omalizumab-naïve", "result": "4 (14.8) n (%)"}, {"measurement": "AAS7 % Change difference for rilzabrutinib vs. placebo LS Mean (95% CI)", "setting": "Week 7, ITT", "result": "16.32 (−13.52, 46.16) %"}, {"measurement": "AAS7 Change difference for rilzabrutinib vs. placebo LS Mean (95% CI)", "setting": "Week 7, ITT", "result": "4.35 (−7.06, 15.76)"}, {"measurement": "AAS7 Change from baseline LS Mean (SE)", "setting": "Week 7, ITT", "result": "−22.95 (4.29)"}, {"measurement": "AAS7 Post-baseline Mean (SD)", "setting": "Week 7, ITT", "result": "31.05 (21.43)"}, {"measurement": "Non-responder n (%), AAS7 = 0", "setting": "Week 7, omalizumab-naïve", "result": "24 (64.9) n (%)"}, {"measurement": "OR (95% CI) for rilzabrutinib vs. placebo, AAS7 = 0", "setting": "Week 7, omalizumab-naïve", "result": 0.611}, {"measurement": "RRD (%) for rilzabrutinib vs. placebo (95% CI), AAS7 = 0", "setting": "Week 7, omalizumab-naïve", "result": "−11.8", "unit": "%"}, {"measurement": "Responder n (%), AAS7 = 0", "setting": "Week 7, omalizumab-naïve", "result": "13 (35.1) n (%)"}, {"measurement": "AAS7 % Change difference for rilzabrutinib vs. placebo LS Mean (95% CI)", "setting": "Week 7, omalizumab-naïve", "result": "19.61 (−12.44, 51.65) %"}, {"measurement": "AAS7 = 0, OR (95% CI) for rilzabrutinib vs. placebo", "setting": "Week 7, omalizumab-naïve", "result": 0.200}, {"measurement": "AAS7 = 0, RRD (%) for rilzabrutinib vs. placebo (95% CI)", "setting": "Week 7, omalizumab-naïve", "result": "−23.0", "unit": "%"}, {"measurement": "AAS7 Post-baseline Mean (SD)", "setting": "Week 7, omalizumab-naïve", "result": "31.88 (21.51)"}, {"measurement": "AAS7 % Change difference for rilzabrutinib vs. placebo LS Mean (95% CI)", "setting": "Week 8, ITT", "result": "−2.51 (−32.23, 27.22) %"}, {"measurement": "AAS7 Change difference for rilzabrutinib vs. placebo LS Mean (95% CI)", "setting": "Week 8, ITT", "result": "−1.74 (−12.55, 9.06)"}, {"measurement": "AAS7 Change from baseline LS Mean (SE)", "setting": "Week 8, ITT", "result": "−30.07 (4.07)"}, {"measurement": "AAS7 Post-baseline Mean (SD)", "setting": "Week 8, ITT", "result": "24.69 (22.82)"}, {"measurement": "Non-responder n (%), AAS7 = 0", "setting": "Week 8, omalizumab-naïve", "result": "20 (54.1) n (%)"}, {"measurement": "OR (95% CI) for rilzabrutinib vs. placebo, AAS7 = 0", "setting": "Week 8, omalizumab-naïve", "result": 1.185}, {"measurement": "RRD (%) for rilzabrutinib vs. placebo (95% CI), AAS7 = 0", "setting": "Week 8, omalizumab-naïve", "result": 4.2, "unit": "%"}, {"measurement": "Responder n (%), AAS7 = 0", "setting": "Week 8, omalizumab-naïve", "result": "17 (45.9) n (%)"}, {"measurement": "AAS7 % Change difference for rilzabrutinib vs. placebo LS Mean (95% CI)", "setting": "Week 8, omalizumab-naïve", "result": "−4.14 (−36.36, 28.09) %"}, {"measurement": "AAS7 = 0, Non-responder n (%)", "setting": "Week 8, omalizumab-naïve", "result": "20 (74.1) n (%)"}, {"measurement": "AAS7 = 0, OR (95% CI) for rilzabrutinib vs. placebo", "setting": "Week 8, omalizumab-naïve", "result": 0.929}, {"measurement": "AAS7 = 0, RRD (%) for rilzabrutinib vs. placebo (95% CI)", "setting": "Week 8, omalizumab-naïve", "result": "−1.3", "unit": "%"}]}
